# Assay results reported in patent US11213517B2, “Pharmaceutical combination comprising a T-type calcium channel blocker” (IDORSIA PHARMACEUTICALS LTD, priority 2016, dated 2022).
# Values joined by “and” are separate entries in the source; they are usually repeats but may differ in a detail not shown here. Equal values may be shown once. Read-outs that look alike come from different tables or passages of the source.
# Key:
# [1] = Plasma and brain concentrations of drugs at the end of the audiogenic seizure experiment (LC-MS); format: in vivo, mouse; conditions: for plasma and brain concentrations after administration of the compounds alone or in combination: juvenile DBA/2J mice; for concentration at 3 h: DBA/2J, mouse
# Method: Briefly, blood was sampled from the vena cava caudalis with a syringe pre-filled with EDTA (ethylenediamine tetraacetic acid) as anticoagulant and centrifuged to yield plasma (for 10 minutes, at 4° C. and 5000 rpm (rounds per minute)). Brain was sampled and homogenized into one volume of cold phosphate buffer (pH 7.4). Following extraction with methanol, concentrations of the compound in plasma and brain were determined using liquid chromatography coupled to mass spectrometry.
# (§1) Different combination efficacy experiments are performed. […] Each experiment consists of four treatment groups: • 1. Vehicle (10% Polyethylene glycol400 (PEG400)/90% methylcellulose (0.5% in water; MC0.5%)), 3 h before exposure to the auditory stimulus+vehicle, 1 h before exposure to the auditory stimulus; • 2. COMPOUND 1 (in 10% PEG400/90% MC0.5%), 3 h before exposure to the auditory stimulus+vehicle, 1 h before exposure to the auditory stimulus; • 3. Vehicle, 3 h before exposure to the auditory stimulus+AED (in 10% PEG400/90% MC0.5%), 1 h before exposure to the auditory stimulus; and • 4. COMPOUND 1 (in 10% PEG400/90% MC0.5%), 3 h before exposure to the auditory stimulus+AED (in 10% PEG400/90% MC0.5%), 1 h before exposure to the auditory stimulus.
# [2] = tested on: audiogenic seizure-sensitive juvenile DBA/2J mice; assay: Audiogenic seizure-sensitive juvenile DBA/2J mouse model of generalized tonic-clonic seizures; format: in vivo; set-up: key: 0 none, 1 wild running, 2 clonus, 3 hind-limb tonic extension; conditions: COMPOUND 1 10 mg/kg 3 h + vehicle 1 h before stimulus, oral gavage; mean ± SEM; 10 mg/kg
# Source text: Audiogenic Seizure-Sensitive Juvenile DBA/2J Mouse Model of Generalized Tonic-Clonic Seizures
# The inbred DBA/2J mouse strain carries an increased general susceptibility for acute generalized convulsive seizures induced by either pharmacological, electrical or, as juvenile, auditory stimuli. At the age of 17 to 28 days (juvenile), they show tonic-clonic convulsions when exposed to a loud tone.
# Male juvenile DBA/2J mice (22-24 days old, body weight between 6.6 and 14.5 grams) were used. Each mouse was placed individually in the exposure chamber, an hemispheric acrylic glass dome (diameter: 50 cm) within a sound-attenuated box. After 60 seconds of habituation, an auditory stimulus of mixed frequency tone (15-20 kHz at 110 dB) was played from a speaker placed on the top center of the dome.
# The sound-attenuated box was equipped with lights and a camera system in order to observe and record the behavioral seizure response classified as following: • stage 0, no response • stage 1, wild running • stage 2, clonus • stage 3, tonic extension of the hind limbs.
# as §1
# [3] = analyte COMPOUND 1, COMPOUND 1 10 mg/kg 3 h + vehicle 1 h before stimulus, oral gavage, mean ± SEM, 10 mg/kg
smiles,measurement,setting,value
"N#Cc1ccc(Cn2ccc(NC(=O)Cc3ccc(C4(C(F)(F)F)CC4)cc3)n2)nc1 [COMPOUND 1, N-[1-(5-Cyano-pyridin-2-ylmethyl)-1H-pyrazol-3-yl]-2-[4-(1-trifluoromethyl-cyclopropyl)-phenyl]-acetamide]",plasma and brain concentrations after administration of the compounds alone or in combination,[1]; COMPOUND 1 and LEV,similar
same,plasma and brain concentrations after administration of the compounds alone or in combination,[1]; COMPOUND 1 and lamotrigine,similar
same,plasma and brain concentrations after administration of the compounds alone or in combination,[1]; COMPOUND 1 and valproic acid,similar
same,concentration at 3 h,"[1]; brain, oral, analyte COMPOUND 1, COMPOUND 1 10 mg/kg 3 h + LEV 1 mg/kg 1 h before stimulus, oral gavage, mean ± SEM, read-out: Brain concentration total",1930 ± 100 ng/g
same,concentration at 3 h,"[1]; brain, oral, analyte COMPOUND 1, COMPOUND 1 10 mg/kg 3 h + LEV 3 mg/kg 1 h before stimulus, oral gavage, mean ± SEM, read-out: Brain concentration total",2520 ± 190 ng/g
same,concentration at 3 h,"[1]; brain, oral, analyte COMPOUND 1, COMPOUND 1 10 mg/kg 3 h + LEV 10 mg/kg 1 h before stimulus, oral gavage, mean ± SEM, read-out: Brain concentration total",2030 ± 137 ng/g
same,concentration at 3 h,"[1]; brain, oral, analyte COMPOUND 1, COMPOUND 1 10 mg/kg 3 h + LEV 50 mg/kg 1 h before stimulus, oral gavage, mean ± SEM, read-out: Brain concentration total",1810 ± 93 ng/g
same,concentration at 3 h,"[1]; brain, oral, analyte COMPOUND 1, COMPOUND 1 10 mg/kg 3 h + LTG 10 mg/kg 1 h before stimulus, oral gavage, mean ± SEM, read-out: Brain concentration total",1420 ± 165 ng/g
same,concentration at 3 h,"[1]; brain, oral, analyte COMPOUND 1, COMPOUND 1 10 mg/kg 3 h + VPA 100 mg/kg 1 h before stimulus, oral gavage, mean ± SEM, read-out: Brain concentration total",2040 ± 178 ng/g
same,concentration at 3 h,"[1]; brain, oral, analyte COMPOUND 1, COMPOUND 1 10 mg/kg 3 h + VPA 200 mg/kg 1 h before stimulus, oral gavage, mean ± SEM, read-out: Brain concentration total",1640 ± 52 ng/g
same,concentration at 3 h,"[1]; brain, oral, analyte COMPOUND 1, COMPOUND 1 30 mg/kg 3 h + LEV 3 mg/kg 1 h before stimulus, oral gavage, mean ± SEM, read-out: Brain concentration total",5960 ± 330 ng/g
same,concentration at 3 h,"[1]; brain, oral, analyte COMPOUND 1, COMPOUND 1 30 mg/kg 3 h + LEV 10 mg/kg 1 h before stimulus, oral gavage, mean ± SEM, read-out: Brain concentration total",5470 ± 533 ng/g
same,concentration at 3 h,"[1]; brain, oral, analyte COMPOUND 1, COMPOUND 1 30 mg/kg 3 h + LEV 50 mg/kg 1 h before stimulus, oral gavage, mean ± SEM, read-out: Brain concentration total",4690 ± 399 ng/g
same,concentration at 3 h,"[1]; brain, oral, analyte COMPOUND 1, COMPOUND 1 30 mg/kg 3 h + LTG 3 mg/kg 1 h before stimulus, oral gavage, mean ± SEM, read-out: Brain concentration total",5030 ± 238 ng/g
same,concentration at 3 h,"[1]; brain, oral, analyte COMPOUND 1, COMPOUND 1 30 mg/kg 3 h + LTG 10 mg/kg 1 h before stimulus, oral gavage, mean ± SEM, read-out: Brain concentration total",4260 ± 350 ng/g
same,concentration at 3 h,"[1]; brain, oral, analyte COMPOUND 1, COMPOUND 1 30 mg/kg 3 h + LTG 30 mg/kg 1 h before stimulus, oral gavage, mean ± SEM, read-out: Brain concentration total",3290 ± 170 ng/g
same,concentration at 3 h,"[1]; brain, oral, analyte COMPOUND 1, COMPOUND 1 30 mg/kg 3 h + VPA 30 mg/kg 1 h before stimulus, oral gavage, mean ± SEM, read-out: Brain concentration total",5100 ± 375 ng/g
same,concentration at 3 h,"[1]; brain, oral, analyte COMPOUND 1, COMPOUND 1 30 mg/kg 3 h + VPA 100 mg/kg 1 h before stimulus, oral gavage, mean ± SEM, read-out: Brain concentration total",5980 ± 336 ng/g
same,concentration at 3 h,"[1]; brain, oral, analyte COMPOUND 1, COMPOUND 1 30 mg/kg 3 h + VPA 200 mg/kg 1 h before stimulus, oral gavage, mean ± SEM, read-out: Brain concentration total",4990 ± 245 ng/g
same,concentration at 3 h,"[1]; brain, po, 10 mg/kg, analyte COMPOUND 1, COMPOUND 1 10 mg/kg 3 h + vehicle 1 h before stimulus, oral gavage, mean ± SEM, read-out: Brain concentration total",1450 ± 104 ng/g
same,concentration at 3 h,"[1]; brain, po, 30 mg/kg, analyte COMPOUND 1, COMPOUND 1 30 mg/kg 3 h + vehicle 1 h before stimulus, oral gavage, mean ± SEM, read-out: Brain concentration total",5230 ± 487 ng/g
same,concentration at 3 h,"[1]; plasma, oral, analyte COMPOUND 1, COMPOUND 1 10 mg/kg 3 h + LEV 1 mg/kg 1 h before stimulus, oral gavage, mean ± SEM, read-out: Plasma concentration total",1500 ± 112 ng/mL
same,concentration at 3 h,"[1]; plasma, oral, analyte COMPOUND 1, COMPOUND 1 10 mg/kg 3 h + LEV 3 mg/kg 1 h before stimulus, oral gavage, mean ± SEM, read-out: Plasma concentration total",1600 ± 111 ng/mL
same,concentration at 3 h,"[1]; plasma, oral, analyte COMPOUND 1, COMPOUND 1 10 mg/kg 3 h + LEV 10 mg/kg 1 h before stimulus, oral gavage, mean ± SEM, read-out: Plasma concentration total",1590 ± 142 ng/mL
same,concentration at 3 h,"[1]; plasma, oral, analyte COMPOUND 1, COMPOUND 1 10 mg/kg 3 h + LEV 50 mg/kg 1 h before stimulus, oral gavage, mean ± SEM, read-out: Plasma concentration total",1720 ± 124 ng/mL
same,concentration at 3 h,"[1]; plasma, oral, analyte COMPOUND 1, COMPOUND 1 10 mg/kg 3 h + LTG 10 mg/kg 1 h before stimulus, oral gavage, mean ± SEM, read-out: Plasma concentration total",1290 ± 140 ng/mL
same,concentration at 3 h,"[1]; plasma, oral, analyte COMPOUND 1, COMPOUND 1 10 mg/kg 3 h + VPA 100 mg/kg 1 h before stimulus, oral gavage, mean ± SEM, read-out: Plasma concentration total",710 ± 80 ng/mL
same,concentration at 3 h,"[1]; plasma, oral, analyte COMPOUND 1, COMPOUND 1 10 mg/kg 3 h + VPA 200 mg/kg 1 h before stimulus, oral gavage, mean ± SEM, read-out: Plasma concentration total",1160 ± 73 ng/mL
same,concentration at 3 h,"[1]; plasma, oral, analyte COMPOUND 1, COMPOUND 1 30 mg/kg 3 h + LEV 3 mg/kg 1 h before stimulus, oral gavage, mean ± SEM, read-out: Plasma concentration total",4530 ± 224 ng/mL
same,concentration at 3 h,"[1]; plasma, oral, analyte COMPOUND 1, COMPOUND 1 30 mg/kg 3 h + LEV 10 mg/kg 1 h before stimulus, oral gavage, mean ± SEM, read-out: Plasma concentration total",4120 ± 315 ng/mL
same,concentration at 3 h,"[1]; plasma, oral, analyte COMPOUND 1, COMPOUND 1 30 mg/kg 3 h + LEV 50 mg/kg 1 h before stimulus, oral gavage, mean ± SEM, read-out: Plasma concentration total",3720 ± 351 ng/mL
same,concentration at 3 h,"[1]; plasma, oral, analyte COMPOUND 1, COMPOUND 1 30 mg/kg 3 h + LTG 3 mg/kg 1 h before stimulus, oral gavage, mean ± SEM, read-out: Plasma concentration total",4550 ± 293 ng/mL
same,concentration at 3 h,"[1]; plasma, oral, analyte COMPOUND 1, COMPOUND 1 30 mg/kg 3 h + LTG 10 mg/kg 1 h before stimulus, oral gavage, mean ± SEM, read-out: Plasma concentration total",3960 ± 372 ng/mL
same,concentration at 3 h,"[1]; plasma, oral, analyte COMPOUND 1, COMPOUND 1 30 mg/kg 3 h + LTG 30 mg/kg 1 h before stimulus, oral gavage, mean ± SEM, read-out: Plasma concentration total",2920 ± 150 ng/mL
same,concentration at 3 h,"[1]; plasma, oral, analyte COMPOUND 1, COMPOUND 1 30 mg/kg 3 h + VPA 30 mg/kg 1 h before stimulus, oral gavage, mean ± SEM, read-out: Plasma concentration total",3150 ± 296 ng/mL
same,concentration at 3 h,"[1]; plasma, oral, analyte COMPOUND 1, COMPOUND 1 30 mg/kg 3 h + VPA 100 mg/kg 1 h before stimulus, oral gavage, mean ± SEM, read-out: Plasma concentration total",2820 ± 256 ng/mL
same,concentration at 3 h,"[1]; plasma, oral, analyte COMPOUND 1, COMPOUND 1 30 mg/kg 3 h + VPA 200 mg/kg 1 h before stimulus, oral gavage, mean ± SEM, read-out: Plasma concentration total",2110 ± 118 ng/mL
same,concentration at 3 h,"[1]; plasma, po, 10 mg/kg, analyte COMPOUND 1, COMPOUND 1 10 mg/kg 3 h + vehicle 1 h before stimulus, oral gavage, mean ± SEM, read-out: Plasma concentration total",2120 ± 175 ng/mL
same,concentration at 3 h,"[1]; plasma, po, 30 mg/kg, analyte COMPOUND 1, COMPOUND 1 30 mg/kg 3 h + vehicle 1 h before stimulus, oral gavage, mean ± SEM, read-out: Plasma concentration total",3090 ± 297 ng/mL
same,Brain concentration total,[1]; [3],1895 ± 75 ng/g and 2379 ± 164 ng/g and 1965 ± 138 ng/g and 1743 ± 158 ng/g and 1435 ± 55 ng/g and 1197 ± 80 ng/g
same,Plasma concentration total,[1]; [3],1128 ± 98 ng/mL and 1858 ± 116 ng/mL and 1894 ± 113 ng/mL and 1785 ± 186 ng/mL and 1318 ± 77 ng/mL and 1522 ± 109 ng/mL
same,Seizure stage (maximal seizure stage observed during exposure to auditory stimulus),[2],3 and 2.7 ± 0.3 and 3.0 ± 0.0 and 2.9 ± 0.1 and 2.7 ± 0.2 and 2.8 ± 0.2
